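In this assay, cells in 96-well plates receive the compound at five concentrations for 48 hours. Endpoints are linearly interpolated between the surrounding concentrations. Here, GI50 denotes the concentration required for 50% inhibition of growth.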 Activity calls are given as the source filed them. Cut-off read from the data, not from the text of the source: active = GI50 up to about 1.1 µM and inactive = higher.
Experiments:
Assay in all cases: DTP human tumour cell line panel, 48 h
UACC-257 = test system: UACC-257
OVCAR-8 = test system: OVCAR-8
T47D = test system: T47D
SK-MEL-28 = test system: SK-MEL-28
MDA-N = test system: MDA-N
EKVX = test system: EKVX
UACC-62 = test system: UACC-62
U-251 = test system: U-251
OVCAR-5 = test system: OVCAR-5
HCT-15 = test system: HCT-15
IGROV-1 = test system: IGROV-1
MOLT-4 = test system: MOLT-4
CAKI-1 = test system: CAKI-1
HL-60 = test system: HL-60
DU-145 = test system: DU-145
MDA-MB-435 = test system: MDA-MB-435
TK-10 = test system: TK-10
SF-268 = test system: SF-268
MCF7 = test system: MCF7
SNB-75 = test system: SNB-75

Row | SMILES | GI50 (UACC-257) | GI50 (OVCAR-8) | GI50 (T47D) | GI50 (SK-MEL-28) | GI50 (MDA-N) | GI50 (EKVX) | GI50 (UACC-62) | GI50 (U-251) | GI50 (OVCAR-5) | GI50 (HCT-15) [µM] | GI50 (IGROV-1) | GI50 (MOLT-4) | GI50 (CAKI-1) | GI50 (HL-60) | GI50 (DU-145) | GI50 (MDA-MB-435) | GI50 (TK-10) | GI50 (SF-268) | GI50 (MCF7) | GI50 (SNB-75)
1 | Cc1ccc2c3c1O[C@H]1c4nc5ccccc5cc4C[C@@]4(O)[C@@H](C2)N(CC2CC2)CC[C@]314 | 24.7 µM (inactive) | 10.7 µM (inactive) | 15.8 µM (inactive) | 19.6 µM (inactive) | 11.8 µM (inactive) | 15.1 µM (inactive) | 9.82 µM (inactive) | 5.74 µM (inactive) | 12.7 µM (inactive) | 0.873 | 17.5 µM (inactive) | 2.5 µM (inactive) | 13.2 µM (inactive) | 9.23 µM (inactive) | 14.1 µM (inactive) | 11.4 µM (inactive) | 29.6 µM (inactive) | 7.03 µM (inactive) | 10.4 µM (inactive) | 
2 | C=[N+](CNC(=O)CNC(=O)C(Cc1ccccc1)NC(=O)OC(C)(C)C)C(=O)CNC(=O)C(Cc1ccccc1)NC(=O)OC(C)(C)C (stereo not given) | > 100 µM (inactive) | > 100 µM (inactive) | > 100 µM (inactive) | > 100 µM (inactive) | > 100 µM (inactive) | > 100 µM (inactive) | > 100 µM (inactive) |  | > 100 µM (inactive) | > 100 | > 100 µM (inactive) | > 100 µM (inactive) | > 100 µM (inactive) |  | > 100 µM (inactive) | > 100 µM (inactive) |  | > 100 µM (inactive) | > 100 µM (inactive) | > 100 µM (inactive)
3 | C(=N\c1cc2cc(Sc3ccccc3)ccc2[nH]1)/c1ccccc1 | > 12.5 µM (inactive) | > 12.5 µM (inactive) | > 12.5 µM (inactive) | > 12.5 µM (inactive) | 4.91 µM (inactive) | > 12.5 µM (inactive) | 7.11 µM (inactive) |  |  | > 12.5 |  | > 12.5 µM (inactive) | > 12.5 µM (inactive) | > 12.5 µM (inactive) | > 12.5 µM (inactive) | 4.28 µM (inactive) |  | > 12.5 µM (inactive) | > 12.5 µM (inactive) | > 12.5 µM (inactive)
4 | Cc1ccc(S(=O)(=O)N/N=C2/C3CC4CCC2C4C3)cc1 (stereo not given) | > 100 µM (inactive) | > 100 µM (inactive) | > 100 µM (inactive) | > 100 µM (inactive) | > 100 µM (inactive) | > 100 µM (inactive) | > 100 µM (inactive) | > 100 µM (inactive) | > 100 µM (inactive) | > 100 | > 100 µM (inactive) |  | > 100 µM (inactive) |  | > 100 µM (inactive) | > 100 µM (inactive) | > 100 µM (inactive) | > 100 µM (inactive) | > 100 µM (inactive) | > 100 µM (inactive)
5 | C[N+]1(CC[N+]2(C)CCCC2c2cccnc2)CCCC1c1cccnc1 (stereo not given) | 76.2 µM (inactive) | > 100 µM (inactive) | 42.4 µM (inactive) | 61.8 µM (inactive) | 32.5 µM (inactive) | 18.7 µM (inactive) | > 100 µM (inactive) | 60 µM (inactive) | > 100 µM (inactive) | > 100 | > 100 µM (inactive) | 2.75 µM (inactive) | > 100 µM (inactive) |  | > 100 µM (inactive) | 33.2 µM (inactive) | > 100 µM (inactive) | > 100 µM (inactive) | > 100 µM (inactive) | > 100 µM (inactive)
6 | COc1ccc(NC2CC(C)N(C(=O)c3ccccc3)O2)cc1 (stereo not given) | > 10 µM (inactive) | > 10 µM (inactive) | > 10 µM (inactive) | > 10 µM (inactive) | > 10 µM (inactive) | > 10 µM (inactive) |  |  | > 10 µM (inactive) | > 10 | > 10 µM (inactive) | > 10 µM (inactive) | > 10 µM (inactive) | 9.91 µM (inactive) | > 10 µM (inactive) | > 10 µM (inactive) | > 10 µM (inactive) | > 10 µM (inactive) | > 10 µM (inactive) | > 10 µM (inactive)
7 | Clc1ccc(CSC2=NCCN2)cc1Cl | 11.1 µM (inactive) | 15.9 µM (inactive) | 7.19 µM (inactive) | 18.7 µM (inactive) | 11.7 µM (inactive) | 8.89 µM (inactive) | 15.9 µM (inactive) | 12.5 µM (inactive) | 19.3 µM (inactive) | 15 | 18.9 µM (inactive) | 11.2 µM (inactive) | 11.2 µM (inactive) | 10.9 µM (inactive) | 14.7 µM (inactive) | 16 µM (inactive) | 16.7 µM (inactive) | 14.9 µM (inactive) | 11.1 µM (inactive) | 
8 | CC1OC(OC2C(OC3CCC4(C)C(CCC5(C)C4CC=C4C6CC(C)(C)CCC6(C(=O)O)CCC45C)C3(C)CO)OCC(O)C2O)C(O)C(O)C1O (stereo not given) | 18.5 µM (inactive) | 20.3 µM (inactive) | 22.1 µM (inactive) | 6.37 µM (inactive) | 21.1 µM (inactive) | 20.4 µM (inactive) | 8.05 µM (inactive) | 21.9 µM (inactive) | 19.8 µM (inactive) | 20.9 | 15.6 µM (inactive) | 14.6 µM (inactive) | 18.5 µM (inactive) |  | 18.9 µM (inactive) | 18.7 µM (inactive) | 20 µM (inactive) | 17.1 µM (inactive) | 0.46 µM (active) | 14.2 µM (inactive)
